Source: US12398120B2, “Substituted hydantoinamides as ADAMTS7 antagonists” (BAYER AKTIENGESELLSCHAFT, priority 2019, dated 2025)

Molecular target: ADAMTS4 (Homo sapiens (Human), UniProt O75173)
Assay: Selectivity assay for ADAMTS-7 modulators: ADAMTS4 (FRET substrate)
Assay type: biochemical
Conditions: ADAMTS4 (R&D 4307-AD) 50 nM, substrate Dabcyl-EEVKAKVQPY-Glu(Edans)-NH2 1 μM, 120 min, 32° C.
Outline: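 Activity read as rising fluorescence after a FRET substrate is cleaved by human ADAMTS4, with reactions started by substrate addition to wells holding compound or DMSO. Percent inhibition plotted against concentration gave IC50.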

Sequence of ADAMTS4 (O75173 213-685): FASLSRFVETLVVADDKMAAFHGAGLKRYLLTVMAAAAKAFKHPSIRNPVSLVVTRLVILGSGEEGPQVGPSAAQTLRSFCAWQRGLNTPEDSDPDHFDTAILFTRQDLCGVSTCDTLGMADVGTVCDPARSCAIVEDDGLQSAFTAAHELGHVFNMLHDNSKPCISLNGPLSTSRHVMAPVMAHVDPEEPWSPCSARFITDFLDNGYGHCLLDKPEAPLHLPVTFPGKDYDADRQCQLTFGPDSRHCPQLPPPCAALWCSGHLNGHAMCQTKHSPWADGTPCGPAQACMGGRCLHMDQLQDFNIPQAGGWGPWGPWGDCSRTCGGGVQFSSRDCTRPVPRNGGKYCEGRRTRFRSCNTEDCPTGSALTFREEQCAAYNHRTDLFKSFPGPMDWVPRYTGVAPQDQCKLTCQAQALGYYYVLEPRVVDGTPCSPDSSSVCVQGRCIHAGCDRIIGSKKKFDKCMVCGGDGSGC

| IC50 [µM] | SMILES |
| --- | --- |
| 2.73 | Cn1nccc1C1(CNC(=O)c2ccc(Cl)cc2-c2ccc(C(F)(F)F)cc2)NC(=O)NC1=O (single isomer, unassigned; ent-5) [Example 188, Ent-5-Chloro-N-{[4-(1-Methyl-1H-Pyrazol-5-Yl)-2,5-Dioxoimidazolidin-4-Yl]Methyl}-4′-(Trifluoromethyl)[Biphenyl]-2-Carboxamide] |
| > 50 | CC(C)C1(CNC(=O)c2ccc(F)cc2-c2ccc(C(F)(F)F)cc2)NC(=O)NC1=O (single isomer, unassigned; ent-5) [Example 207, Ent-5-Fluoro-N-[(4-Isopropyl-2,5-Dioxoimidazolidin-4-Yl)Methyl]-4′-(Trifluoromethyl)[Biphenyl]-2-Carboxamide] |
| 11 | O=C1NC(=O)C(CNC(=O)c2ccc(F)cc2-c2ccc(C(F)(F)F)cc2)(C2(F)CC2)N1 (single isomer, unassigned; ent-5) [Example 253, Ent-5-Fluoro-N-{[4-(1-Fluorocyclopropyl)-2,5-Dioxoimidazolidin-4-Yl]Methyl}-4′-(Trifluoromethyl)[Biphenyl]-2-Carboxamide] |
| 0.16 | Cc1ccc(C(=O)NCC2(c3nccn3C)NC(=O)NC2=O)c(-c2ccc(C(F)(F)F)cc2)c1C (single isomer, unassigned; ent-5) [Example 287, Ent-5,6-Dimethyl-N-{[4-(1-Methyl-1H-Imidazol-2-Yl)-2,5-Dioxoimidazolidin-4-Yl]Methyl}-4′-(Trifluoromethyl)[Biphenyl]-2-Carboxamide] |
| 9.5 | Cn1nccc1C1(CNC(=O)c2cc(F)ccc2-c2ccc(C(F)(F)F)nc2)NC(=O)NC1=O (single isomer, unassigned; ent-5) [Example 292, Ent-5-Fluoro-N-{[4-(1-Methyl-1H-Pyrazol-5-Yl)-2,5-Dioxoimidazolidin-4-Yl]Methyl}-2-[6-(Trifluoromethyl)Pyridin-3-Yl]Benzamide] |
| 37 | O=C1NC(=O)C(CNC(=O)c2ccc(F)cc2-c2ccc(C(F)(F)F)cc2)(C23CC(F)(C2)C3)N1 (single isomer, unassigned; ent-5) [Example 294, Ent-5-Fluoro-N-{[4-(3-Fluorobicyclo[1.1.1]Pentan-1-Yl)-2,5-Dioxoimidazolidin-4-Yl]Methyl}-4′-(Trifluoromethyl)[Biphenyl]-2-Carboxamide] |
| 9.3 | O=C1NC(=O)C(CNC(=O)c2ccc(F)c(F)c2-c2ccc(C(F)(F)F)cc2)(C2(F)CC2)N1 (single isomer, unassigned; ent-5) [Example 298, Ent-5,6-Difluoro-N-{[4-(1-Fluorocyclopropyl)-2,5-Dioxoimidazolidin-4-Yl]Methyl}-4′-(Trifluoromethyl)[Biphenyl]-2-Carboxamide] |
| 4.2 | Cc1ccc(C(=O)NCC2(c3ccnn3C)NC(=O)NC2=O)c(-c2ccc(C(F)(F)F)cc2)c1 (single isomer, unassigned; ent-5) [Example 308, Ent-5-Methyl-N-{[4-(1-Methyl-1H-Pyrazol-5-Yl)-2,5-Dioxoimidazolidin-4-Yl]Methyl}-4′-(Trifluoromethyl)[Biphenyl]-2-Carboxamide] |
| 2.7 | Cn1nccc1C1(CNC(=O)c2ccc(C(F)F)cc2-c2ccc(C(F)(F)F)cc2)NC(=O)NC1=O (single isomer, unassigned; ent-5) [Example 309, Ent-5-(Difluoromethyl)-N-{[4-(1-Methyl-1H-Pyrazol-5-Yl)-2,5-Dioxoimidazolidin-4-Yl]Methyl}-4′-(Trifluoromethyl)[Biphenyl]-2-Carboxamide] |
| 1.6 | Cc1cccc(C(=O)NCC2(c3nccn3C)NC(=O)NC2=O)c1-c1ccc(C(F)(F)F)cc1 (single isomer, unassigned; ent-6) [Example 133, Ent-6-Methyl-N-{[4-(1-Methyl-1H-Imidazol-2-Yl)-2,5-Dioxoimidazolidin-4-Yl]Methyl}-4′-(Trifluoromethyl)[1,1′-Biphenyl]-2-Carboxamide] |
| 1.3 | Cn1ccnc1C1(CNC(=O)c2cccc(F)c2-c2ccc(C(F)(F)F)cc2)NC(=O)NC1=O (single isomer, unassigned; ent-6) [Example 163, Ent-6-Fluoro-N-{[4-(1-Methyl-1H-Imidazol-2-Yl)-2,5-Dioxoimidazolidin-4-Yl]Methyl}-4′-(Trifluoromethyl)[Biphenyl]-2-Carboxamide] |
| 4.63 | Cn1nccc1C1(CNC(=O)c2cccc(F)c2-c2ccc(C(F)(F)F)cc2)NC(=O)NC1=O (single isomer, unassigned; ent-6) [Example 195, Ent-6-Fluoro-N-{[4-(1-Methyl-1H-Pyrazol-5-Yl)-2,5-Dioxoimidazolidin-4-Yl]Methyl}-4′-(Trifluoromethyl)[Biphenyl]-2-Carboxamide] |
| 23 | CC(C)C1(CNC(=O)c2cccc(F)c2-c2ccc(C(F)(F)F)cc2)NC(=O)NC1=O (single isomer, unassigned; ent-6) [Example 210, Ent-6-Fluoro-N-[(4-Isopropyl-2,5-Dioxoimidazolidin-4-Yl)Methyl]-4′-(Trifluoromethyl)[Biphenyl]-2-Carboxamide] |
| 23 | O=C1NC(=O)C(CNC(=O)c2cccc(F)c2-c2ccc(C(F)(F)F)cc2)(C2(F)CC2)N1 (single isomer, unassigned; ent-6) [Example 300, Ent-6-Fluoro-N-{[4-(1-Fluorocyclopropyl)-2,5-Dioxoimidazolidin-4-Yl]Methyl}-4′-(Trifluoromethyl)[Biphenyl]-2-Carboxamide] |
| 1.9 | Cn1nccc1C1(CNC(=O)c2cccc(Cl)c2-c2ccc(C(F)(F)F)cc2)NC(=O)NC1=O (single isomer, unassigned; ent-6) [Example 310, Ent-6-Chloro-N-{[4-(1-Methyl-1H-Pyrazol-5-Yl)-2,5-Dioxoimidazolidin-4-Yl]Methyl}-4′-(Trifluoromethyl)[Biphenyl]-2-Carboxamide] |
| > 50 | CC1CCC1C1(CNC(=O)c2ccccc2-c2ccc(C(F)(F)F)cc2)NC(=O)NC1=O (centres unmarked) [Example 13, Diamix-N-{[4-(2-Methylcyclobutyl)-2,5-Dioxoimidazolidin-4-Yl]Methyl}-4′-(Trifluoromethyl)[Biphenyl]-2-Carboxamide] |
| > 50 | Cc1ccc(-c2cnccc2C(=O)NC[C@@]2(C3CC3)NC(=O)NC2=O)cc1 [Example 19, N-{[(4R)-4-Cyclopropyl-2,5-Dioxoimidazolidin-4-Yl]Methyl}-3-(4-Methylphenyl)Isonicotinamide] |
| 28 | O=C1NC(=O)[C@](CNC(=O)c2cc(F)c(F)cc2-c2ccc(C(F)(F)F)cc2)(C2CC2)N1 [Example 20, N-{[(4R)-4-Cyclopropyl-2,5-Dioxoimidazolidin-4-Yl]Methyl}-4,5-Difluoro-4′-(Trifluoromethyl)[Biphenyl]-2-Carboxamide] |
| > 50 | O=C1NC(=O)[C@](CNC(=O)c2ccccc2-c2ccc(OC(F)(F)F)cc2)(C2CC2)N1 [Example 21, N-{[(4R)-4-Cyclopropyl-2,5-Dioxoimidazolidin-4-Yl]Methyl}-4′-(Trifluoromethoxy)[Biphenyl]-2-Carboxamide] |

| SMILES | IC50 [µM] |
| --- | --- |
| Cn1nccc1C1(CNC(=O)c2ccc(F)c(F)c2-c2ccc(C(F)(F)F)cc2)NC(=O)NC1=O (single isomer, unassigned; ent-5) [Example 191, Ent-5,6-Difluoro-N-{[4-(1-Methyl-1H-Pyrazol-5-Yl)-2,5-Dioxoimidazolidin-4-Yl]Methyl}-4′-(Trifluoromethyl)[Biphenyl]-2-Carboxamide] | 6.48 |
